Data taken from US20260206762A1, “PYRIMIDINONE DERIVATIVES AS PESTICIDAL COMPOUNDS” (BASF SE, priority 2022, published 2026).

Experiments:
[1] = system: diamond back moth (Plutella xylostella); assay: Diamond back moth (Plutella xylostella) cabbage leaf disc dip test; format: in vivo; conditions: for Test according to B.4 (Plutella xylostella) @ 10 ppm: comparison data; for mortality at 800 ppm: Plutella xylostella, foliar, 3rd instar larvae, 72 hours after treatment, read-out: mortality in comparison with untreated controls
Experimental: B.4 Diamond Back Moth (Plutella xylostella)
The active compound is dissolved at the desired concentration in a mixture of 1:1 (vol:vol) distilled water: acetone. Surfactant (Kinetic) is added at a rate of 0.01% (vol/vol). The test solution is prepared at the day of use. Cabbage leaf discs (60 mm in diameter) are dipped in test solution and air-dried. Treated leaves are placed in petri dishes lined with moistened filter paper and inoculated with ten 3rd instar larvae. Mortality is recorded 72 hours after treatment. Feeding damage is also recorded using a scale of 0-100%.

[2] = system: southern armyworm (Spodoptera eridania), 2nd instar larvae; assay: whole plant or invertebrate; conditions: in Phaseolus lunatus, foliar, 96 h, read-out: mortality in comparison with untreated controls
Experimental: B.5 Southern Armyworm (Spodoptera eridania), 2nd Instar Larvae
The 10,000 ppm solution was serially diluted in 100% cyclohexanone to make interim solutions. These served as stock solutions for which final dilutions were made by the Tecan in 50% acetone:50% water (v/v) into 10 or 20 ml glass vials. A nonionic surfactant (Kinetic®) was included in the solution at a volume of 0.01% (v/v). The vials were then inserted into an automated electrostatic sprayer equipped with an atomizing nozzle for application to plants/insects. Lima bean plants (variety Sieva) were grown 2 plants to a pot and selected for treatment at the 1st true leaf stage. Test solutions were sprayed onto the foliage by an automated electrostatic plant sprayer equipped with an atomizing spray nozzle. The plants were dried in the sprayer fume hood and then removed from the sprayer. Each pot was placed into perforated plastic bags with a zip closure. Ten to 11 armyworm larvae were placed into the bag and the bags zipped closed. Test plants were maintained in a growth room at about 25° C. and about 20-40% relative humidity for 4 days, avoiding direct exposure to fluorescent light (14:10 light:dark photoperiod) to prevent trapping of heat inside the bags. Mortality and reduced feeding were assessed 4 days after treatment, compared to untreated control plants.

[3] = system: tobacco budworm (Heliothis virescens); assay: Tobacco budworm (Heliothis virescens) microtiter diet test, egg and larval mortality; format: in vivo; conditions: 120 h, egg and larval mortality after 5 days, read-out: mortality in comparison with untreated controls
Experimental: B.2 Tobacco Budworm (Heliothis virescens)
(§1) For evaluating control of tobacco budworm (Heliothis virescens) the test unit consisted of 96-well-microtiter plates containing an insect diet and 15-25 H. virescens eggs. The compounds were formulated using a solution containing 75% v/v water and 25% v/v DMSO. Different concentrations of formulated compounds were sprayed onto the insect diet at 10 μl, using a custom-built micro atomizer, at two replications. After application, microtiter plates were incubated at about 28±1° C. and about 80±5% relative humidity for 5 days. Egg and larval mortality was then visually assessed.

[4] = system: boll weevil (Anthonomus grandis); assay: Boll weevil (Anthonomus grandis) microtiter diet test, egg and larval mortality; format: in vivo; conditions: 120 h, egg and larval mortality after 5 days, read-out: mortality in comparison with untreated controls
Experimental: B.1 Boll Weevil (Anthonomus grandis)
as §1, with “boll weevil (Anthonomus grandis)” for “tobacco budworm (Heliothis virescens)”, “5-10 A. grandis” for “15-25 H. virescens”, “5” for “10”, “25±1°” for “28±1°”, “75±5%” for “80±5%”

[5] = system: green peach aphid (Myzus persicae); assay: Green peach aphid (Myzus persicae) systemic artificial diet test; format: in vivo; conditions: 72 h, aphid mortality after 3 days, read-out: mortality in comparison with untreated controls
Excerpt: B.3 Green Peach Aphid (Myzus persicae)
For evaluating control of green peach aphid (Myzus persicae) through systemic means the test unit consisted of 96-well-microtiter plates containing liquid artificial diet under an artificial membrane. The compounds were formulated using a solution containing 75% v/v water and 25% v/v DMSO. Different concentrations of formulated compounds were pipetted into the aphid diet, using a custom built pipetter, at two replications. After application, 5-8 adult aphids were placed on the artificial membrane inside the microtiter plate wells. The aphids were then allowed to suck on the treated aphid diet and incubated at about 23±1° C. and about 50±5% relative humidity for 3 days. Aphid mortality and fecundity was then visually assessed.

Structure (SMILES)	Test according to B.4 (Plutella xylostella) @ 10 ppm [1]	mortality at 300 ppm [2]	mortality at 800 ppm [3]	mortality at 800 ppm [4]	mortality at 800 ppm [5]	mortality at 800 ppm [1]
CCS(=O)(=O)c1cc(C(C)(C)C#N)cnc1-c1cn2c(=O)n(C3CC3)c(C(F)(F)F)cc2n1 [Compound C.4, reference compound]	25%					
CCS(=O)(=O)c1cc(-c2ccc(F)cc2)cnc1-c1cn2c(=O)n(C3CC3)c(Br)cc2n1 [I.4, 7-bromo-6-cyclopropyl-2-[3-ethylsulfonyl-5-(4-fluorophenyl)-2-pyridyl]imidazo[1,2-c]pyrimidin-5-one]		> 75%	> 75%	> 75%	> 75%	> 75%
CCS(=O)(=O)c1cc(C(C)(C)C#N)cnc1-c1cn2c(=O)n(C3CC3)c(Cl)cc2n1 [I.3]	100%	> 75%		> 75%	> 75%	> 75%
CCS(=O)(=O)c1cc(-c2ccc(F)cc2)cnc1-c1cn2c(=O)n(C3CC3)c(Cl)cc2n1 [I.1, 7-chloro-6-cyclopropyl-2-[3-ethylsulfonyl-5-(4-fluorophenyl)-2-pyridyl]imidazo[1,2-c]pyrimidin-5-one]		> 75%	> 75%	> 75%	> 75%	> 75%
CCS(=O)(=O)c1cc(-c2ccc(F)cc2)c(C)nc1-c1cn2c(=O)n(C3CC3)c(Cl)cc2n1 [I.5, 7-chloro-6-cyclopropyl-2-[3-ethylsulfonyl-5-(4-fluorophenyl)-6-methyl-2-pyridyl]imidazo[1,2-c]pyrimidin-5-one]		> 75%	> 75%	> 75%	> 75%	> 75%
